Target: T1, DWM-GLYI (mitochondrial glyoxalase I)
T1 construct: native activity in Triton X-100-lysed purified mitochondria; isoform not identified
Experiment: spectrophotometric GLYI activity assay ([…] nm) in lysed mitochondria, inhibition kinetics
Assay type: biochemical, Triticum turgidum subsp. durum

SMILES: O=c1c(O)c(-c2ccc(O)c(O)c2)oc2cc(O)cc(O)c12 [quercetin]
- Ki: 55 ± 7.5 µM

SMILES: COc1cc(/C=C/C(=O)CC(=O)/C=C/c2ccc(O)c(OC)c2)ccc1O [curcumin]
- Ki: 20 ± 3.5 µM
